As a reminder, the inhibition is the drop in the measured response relative to a control, in per cent. Broadly, the IC50 is the concentration that gives 50% inhibition.

Results on 1 molecule are retold here after patent publication US20090209535A1, “6-ETHER/THIOETHER-PURINES AS TOPOISOMERASE II CATALYTIC INHIBITORS AND THEIR USE IN THERAPY” (TOPOTARGET A/S, priority 2005, published 2009).

“And” between values parts separate entries of the source, which are not always exact repeats. Equal values may be shown once. Read-outs that look alike come from different tables or passages of the source.

The target in assay [1] is T1, human topoisomerase II α-DNA covalent complexes (Homo sapiens, UniProt P11388).
T1 construct: made in house; host or cells: yeast (over-expressing yeast cells)
Put plainly: Topoisomerase II DNA cleavage assay (phenol-chloroform extraction, Δcpm). In kind it is biochemical. As to conditions: 1000 μM.
Excerpt: In order to determine the ability of NSC 35866 to increase the level of topoisomerase II-DNA covalent complexes on DNA in vitro, a new and highly sensitive topoisomerase II DNA cleavage assay having a numeric readout was developed. […] The DNA substrate is a 950 bp linear ^3H-labelled DNA synthesized by PCR in the presence of ^3H-dATP. […] The DNA fragment was isolated from unincorporated dNTPs by ethanol precipitation at 0.3 M NaCl, followed by washing in 70% ethanol. The specific activity of the fragment was typically 10,000-20,000 cpm/μg. Before starting the assay, a drug dilution series comprising 10× the final drug concentration was made. Reaction mixtures containing 100 ng of the 950 bp linear ^3H-labelled DNA, 300 ng human topoisomerase II q, topoisomerase II cleavage buffer (10 mM TRIS-HCL pH 7.9, 50 mM NaCl, 50 mM KCl, 5 mM MgCl2, 1 mM EDTA, 15 μg/mL BSA and 1 mM Na2ATP), and increasing concentrations of drug in 50 μL reaction volumes were then incubated 10 minutes at 37° C. A “no topoisomerase II” sample and a “no drug” sample were always included as controls. Next, the cleavable complex was trapped by adding 5 μL 10% SDS. After vigorous vortexing, 45 uL TE buffer, pH=8.0, was added to obtain 100 μL per sample. 100 μL phenol:chloroform:isoamyl alcohol (25:24:1) equilibrated with TE buffer, pH=8.0, was then added, and the samples were vortexed vigorously for 30 seconds. Finally, the samples were centrifuged at 20,000 g for 2 minutes and 90 μL of the upper water phase was used for scintillation counting using 15 mL of Ultima gold scintillation fluid (Packard).
In order to establish whether NSC 35866 inhibits the DNA strand passage reaction of topoisomerase II by stabilising a covalent reaction intermediate, a new and highly sensitive topoisomerase II DNA cleavage assay having a numeric read-out was developed. This assay is based on the fact that after extraction with phenol-chloroform, protein-bound DNA is removed from the water phase, while naked DNA remains in the water phase. […] Consequently, in reactions containing topoisomerase II and linear DNA, the ability of compounds to remove DNA from the water phase after phenol-chloroform extraction should reflect their potency as topoisomerase II poisons. This assay was first validated by incubating 100 ng of a linear 950 bp PCR DNA fragment with 300 ng of purified human topoisomerase II α in the presence of increasing concentrations of the etoposide and m-AMSA. The DNA fragment was ^3H labelled by performing PCR in the presence of ^3H-dATP. In these experiments, a “no topoisomerase II” sample was always included to determine the level of radioactivity (DNA) retained in the water-phase when no enzyme is present. Within each experiment, the CPM values retained in the water phase in the topoisomerase II reactions were then subtracted from this background CPM value to give Δcpm. Consequently, the Δcpm values of samples with no drug added represent the background level of topoisomerase II-DNA covalent complexes present in the reaction mixture under the assay conditions, while the Δcpm levels in the presence of drugs represent the levels of poison-induced topoisomerase II-DNA covalent complexes.

Assay [2] deals with T2, topoisomerase II α (Homo sapiens, UniProt P11388). As to the kind of experiment: Topoisomerase II ATPase assay (coupled, NADH oxidation). In kind it is biochemical. More on the design: made in house; host or cells: yeast (over-expressing yeast cells). The procedure: The reaction was monitored spectrophotometrically at 340 nm using a Bio-Tek EL808 Ultra Micro plate Reader connected to a computer with KC4 Software installed (Bio-Tek Instruments, U.S.). The change in absorbance was related to ADP production using A340^1M=6220 cm^−1. […] The rate of ATP hydrolysis, V, was determined from the linear part of the curve.
The steady-state rate of ATP hydrolysis was determined using a coupled ATPase assay as described herein. […] Error bars represent SEM of two independent experiments each performed in duplicate.
The steady-state rate of ATP hydrolysis was determined as described in for FIG. 3 and as described herein. In this analysis, the rate of ATP hydrolysis in the absence of drug was set to one in all experiments. Error bars represent SEM of 2 or 3 independent experiments each preformed in duplicate.

Assay [3] has as its target T2, topoisomerase II α. As to the kind of experiment: Band depletion assay (extractable topoisomerase II α, western blot). The class given is cell-based. More on the design: OC—NYH cells were exposed to increasing concentrations of NSC 35866 for one hour and total proteins were extracted at 0.3 M NaCl; endogenous in cells; host or cells: human small cell lung cancer OC-NYH cells. The note with it: OC—NYH cells, one hour. The procedure: Band depletion assay was performed essentially as described in Sehested et al., 1998. The amount of extractable topoisomerase II α was detected by the ECL detection method (Amersham, Buckinghamshire, United Kingdom). OC—NYH cells were exposed to increasing concentrations of NSC 35866 for one hour and total proteins were extracted at 0.3 M NaCl. For detection of topoisomerase II α, a polyclonal primary antibody (Bio Trend, Cologne, Germany) was used. Horseradish peroxidase linked anti-rabbit antibody (Amersham, Buckinghamshire, United Kingdom) was used as secondary antibody.
FIG. 10 describes the results of studies of the ability of NSC 35866 to trap human topoisomerase II α as a non-extractable complex on DNA in a dose dependent manner. The ability of NSC 35866 to stabilise topoisomerase II α as a non-extractable complex on DNA in human SCLC OC—NYH cells was assessed using the band depletion assay as described herein. The amounts of topoisomerase II α was visualised by western blotting using a topoisomerase II α specific primary antibody: Lane 1, no drug; Lane 2, 200 μM ICRF-187; Lane 3, 200 μM NSC 35866; Lane 4, 500 μM NSC 35866; Lane 5, 1000 μM NSC 35866. Band depletion of the topoisomerase II α isoform caused by NSC 35866 was detected in two independent experiments.

Assay [4] deals with T3, wild-type human topoisomerase II α (Homo sapiens, UniProt P11388).
T3 construct: made in house; host or cells: yeast (over-expressing yeast cells)
Put plainly: Topoisomerase II DNA strand passage assay (kDNA decatenation), wild-type enzyme. The note with it: wild-type enzyme. In kind it is biochemical. The protocol: Topoisomerase II catalytic activity (DNA strand passage activity) was measured by using a filter-based kDNA decatenation assay as described in Jensen et al., 2002. Briefly, 200 ng ^3H labelled kDNA isolated from C. fasciculata was incubated with increasing concentrations of drug in 20 μL reaction buffer containing 10 mM TRIS-HCl pH 7.7, 50 mM NaCl, 50 mM KCl, 5 mM MgCl2, 1 mM EDTA, 15 μg/mL BSA and 1 mM ATP using two units of purified wild-type or Y165S mutant topoisomerase II α for 20 minutes at 37° C. (where one unit of activity is defined as the amount of enzyme required for complete decatenation in the absence of drug). After addition of 5× stop buffer (5% Sarkosyl, 0.0025% bromophenol blue, and 50% glycerol), unprocessed kDNA network and decatenated DNA mini-circles were separated by filtering, and the amount of unprocessed kDNA in each reaction was determined by scintillation counting.
FIG. 2 describes the results of studies of the inhibition of topoisomerase II DNA strand passage activity by increasing concentrations of NSC 35866. Inhibition of human topoisomerase II α DNA strand passage activity was assessed by decatenation of tritium-labelled Crithidia fasiculata kDNA using a filter-based assay to separate unprocessed kDNA network from decatenated mini-circles. […] Error bars represent SEM of three independent experiments in panel A and two independent experiments in panel B.
Inhibition of human topoisomerase II α DNA strand passage activity was determined by decatenation of tritium labelled Crithidia fasiculata kDNA as described for FIG. 2. Error bars represent SEM of 3 or 4 independent experiments.

In assay [5] the target is T4, bisdioxopiperazine resistant Y165S mutant human topoisomerase II α (Homo sapiens, UniProt P11388, Y165S).
T4 construct: made in house; host or cells: yeast (over-expressing yeast cells)
The class given is biochemical. The note with it: FIG. 2-B.

T2 sequence (P11388 whole entry): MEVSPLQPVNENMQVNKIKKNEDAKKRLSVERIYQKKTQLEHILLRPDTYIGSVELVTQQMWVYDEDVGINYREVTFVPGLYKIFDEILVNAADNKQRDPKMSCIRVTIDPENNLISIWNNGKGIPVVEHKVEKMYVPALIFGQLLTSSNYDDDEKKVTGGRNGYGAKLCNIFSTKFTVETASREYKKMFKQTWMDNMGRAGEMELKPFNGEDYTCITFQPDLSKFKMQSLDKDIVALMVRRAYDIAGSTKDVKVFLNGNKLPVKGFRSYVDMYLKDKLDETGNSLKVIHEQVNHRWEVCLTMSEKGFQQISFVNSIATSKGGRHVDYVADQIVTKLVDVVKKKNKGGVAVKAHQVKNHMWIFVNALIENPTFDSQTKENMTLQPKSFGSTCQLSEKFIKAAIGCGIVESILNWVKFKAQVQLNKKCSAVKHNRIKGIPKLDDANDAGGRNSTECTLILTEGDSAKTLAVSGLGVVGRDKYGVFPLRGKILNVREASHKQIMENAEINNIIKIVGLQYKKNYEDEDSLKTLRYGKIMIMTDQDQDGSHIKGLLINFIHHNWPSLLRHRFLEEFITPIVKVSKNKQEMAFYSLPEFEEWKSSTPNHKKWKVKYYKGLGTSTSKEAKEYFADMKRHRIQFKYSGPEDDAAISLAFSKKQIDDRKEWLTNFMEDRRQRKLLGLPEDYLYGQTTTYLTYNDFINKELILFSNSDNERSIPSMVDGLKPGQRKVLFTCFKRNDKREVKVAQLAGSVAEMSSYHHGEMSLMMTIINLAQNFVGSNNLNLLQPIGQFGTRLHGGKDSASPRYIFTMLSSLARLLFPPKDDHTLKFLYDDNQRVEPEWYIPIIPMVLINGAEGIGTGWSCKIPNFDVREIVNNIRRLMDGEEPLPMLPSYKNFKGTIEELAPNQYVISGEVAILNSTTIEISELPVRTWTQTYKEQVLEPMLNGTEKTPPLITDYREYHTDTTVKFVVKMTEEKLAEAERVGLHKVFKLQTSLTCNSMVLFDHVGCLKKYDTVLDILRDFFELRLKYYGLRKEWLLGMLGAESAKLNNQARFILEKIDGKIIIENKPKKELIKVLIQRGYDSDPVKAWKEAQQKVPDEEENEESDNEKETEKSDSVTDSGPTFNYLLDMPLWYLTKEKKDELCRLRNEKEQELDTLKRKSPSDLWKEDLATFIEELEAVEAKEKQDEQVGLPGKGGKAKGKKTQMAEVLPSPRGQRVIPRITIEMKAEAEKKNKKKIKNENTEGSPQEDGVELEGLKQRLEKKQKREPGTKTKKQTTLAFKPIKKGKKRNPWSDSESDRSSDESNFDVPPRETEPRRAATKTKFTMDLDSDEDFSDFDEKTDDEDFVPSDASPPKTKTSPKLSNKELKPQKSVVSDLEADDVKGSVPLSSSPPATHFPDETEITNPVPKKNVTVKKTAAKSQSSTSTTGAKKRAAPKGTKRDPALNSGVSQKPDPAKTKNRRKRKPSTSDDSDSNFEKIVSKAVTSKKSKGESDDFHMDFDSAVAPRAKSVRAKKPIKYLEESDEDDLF
T3 sequence (P11388 whole entry): as above
T1 sequence (P11388 whole entry, one chain of several): as the sequence (P11388 whole entry) above
T4 sequence (P11388 whole entry Y165S): as the sequence (P11388 whole entry) above, with Y165S counted along it

As for `Nc1nc(SCCc2ccccc2)c2nc[nH]c2n1` [NSC 35866, 2-amino-6-(phenylethylthio)-purine], in assay [1], the “effect on level of topoisomerase II-DNA covalent complexes, in words” value was “no measurable effect”. Further, the inhibition at 300 µM at topoisomerase II α [2] (300 μM, in the presence of DNA, read-out: inhibition of the total ATPase activity) was determined as 75%. Further, at topoisomerase II α [2] (10 mM DTT in the reaction buffer), the “inhibition of ATPase activity in the presence of DTT, in words” value is listed as “could inhibit ATPase activity”. The IC50 at topoisomerase II α [2] (in the presence of DNA (DNA-stimulated), read-out: IC50, inhibition of ATPase activity) is 50 µM and 30 to 100 µM; at topoisomerase II α [2] (without DNA, read-out: IC50, inhibition of DNA-independent ATPase activity), 300 µM. Also, the figures for the “effect on amount of extractable topoisomerase II α, in words” value at topoisomerase II α [3] (200 μM), on topoisomerase II α [3] (500 μM) and on topoisomerase II α [3] (1000 μM) were “no effect”, “reduced the amount of extractable topoisomerase II” and “reduced the amount of extractable topoisomerase II”, respectively. The “concentrations at which DNA strand passage activity is inhibited” value in assay [4] (FIG. 2-A) is given as “above 250 μM”. Besides, the “inhibition of DNA strand passage (decatenation) activity, in words” value in assay [4] (FIG. 2-A and FIG. 5) is listed as “clearly less potent in comparison with the reference compound ICRF-187”. The “inhibition of catalytic activity of the Y165S protein, in words” value in assay [5] is on record as “capable of doing so”.
